Test results taken from PubChem BioAssay (NCI).
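Interpolation was linear, between the two tested concentrations surrounding the appropriate level; five concentrations were tested over 48 hours in 96-well plates. TGI denotes the concentration required for complete inhibition of growth.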

What was measured:
Experiment in all cases: inhibition of tumour cell growth, NCI panel, 48 h
[1] = system: ACHN renal
[2] = system: NCI-H460 lung
[3] = system: UO-31 renal
[4] = system: LOX IMVI melanoma
[5] = system: SW-620 colon
[6] = system: UACC-62 melanoma
[7] = system: U251 CNS
[8] = system: T-47D breast
[9] = system: SN12C renal
[10] = system: RXF 393 renal
[11] = system: SK-MEL-5 melanoma
[12] = system: SK-OV-3 ovarian
[13] = system: NCI/ADR-RES ovarian
[14] = system: EKVX NSCLC
[15] = system: RPMI-8226 leukemia
[16] = system: MOLT-4 leukemia
[17] = system: SR leukemia
[18] = system: SNB-19 CNS
[19] = system: OVCAR-5 ovarian
[20] = system: CCRF-CEM leukemia
[21] = system: UACC-257 melanoma
[22] = system: PC-3 prostate
[23] = system: MDA-MB-231 breast
[24] = system: K-562 leukemia
[25] = system: MDA-MB-435
[26] = system: TK-10 renal
[27] = system: DU-145 prostate
[28] = system: COLO 205 colon
[29] = system: M14 melanoma
[30] = system: HOP-62 NSCLC
[31] = system: OVCAR-8 ovarian
[32] = system: A549 NSCLC
[33] = system: OVCAR-4 ovarian
[34] = system: KM12 colon
[35] = system: SF-539 CNS
[36] = system: HT29 colon
[37] = system: NCI-H522 lung
[38] = system: MCF7 breast
[39] = system: IGROV1 ovarian
[40] = system: SF-295 CNS
[41] = system: SK-MEL-2 melanoma
[42] = system: HS 578T breast
[43] = system: HCT-15 colon
[44] = system: MDA-N
[45] = system: 786-0 renal
[46] = system: SNB-75 CNS
[47] = system: HL-60(TB) leukemia
[48] = system: NCI-H226 lung
[49] = system: SF-268 CNS
[50] = system: HCT-116 colon
[51] = system: BT-549 breast
[52] = system: OVCAR-3 ovarian
[53] = system: CAKI-1 renal
[54] = system: SK-MEL-28 melanoma
[55] = system: MALME-3M melanoma
[56] = system: A498 renal
[57] = system: HOP-92 NSCLC
[58] = system: NCI-H23 lung
[59] = system: HCC-2998 colon

## Cc1ccc(S(=O)(=O)N(CCN2C(=O)c3ccccc3C2=O)c2cc3c4c(c2)Oc2cc(N(CCN5C(=O)c6ccccc6C5=O)S(=O)(=O)c5ccc(C)cc5)cc5c2C4(C)c2c(cc(N(CCN4C(=O)c6ccccc6C4=O)S(=O)(=O)c4ccc(C)cc4)cc2O5)O3)cc1
[1]
  TGI: > 100 µM
[2]
  TGI: > 100 µM
[3]
  TGI: > 100 µM
[4]
  TGI: > 100 µM
[5]
  TGI: > 100 µM
[6]
  TGI: > 100 µM
[7]
  TGI: > 100 µM
[8]
  TGI: > 100 µM
[9]
  TGI: > 100 µM
[10]
  TGI: > 100 µM
[11]
  TGI: > 100 µM
[12]
  TGI: > 100 µM
[13]
  TGI: > 100 µM
[14]
  TGI: > 100 µM
[15]
  TGI: > 100 µM
[16]
  TGI: > 100 µM
[17]
  TGI: > 100 µM
[18]
  TGI: > 100 µM
[19]
  TGI: > 100 µM
[20]
  TGI: > 100 µM
[21]
  TGI: > 100 µM
[22]
  TGI: > 100 µM
[23]
  TGI: 45.8 µM
[24]
  TGI: > 100 µM
[25]
  TGI: > 100 µM
[26]
  TGI: > 100 µM
[27]
  TGI: > 100 µM
[28]
  TGI: > 100 µM
[29]
  TGI: > 100 µM
[30]
  TGI: > 100 µM
[31]
  TGI: > 100 µM
[32]
  TGI: > 100 µM
[33]
  TGI: > 100 µM
[34]
  TGI: > 100 µM
[35]
  TGI: > 100 µM
[36]
  TGI: > 100 µM
[37]
  TGI: > 100 µM
[38]
  TGI: > 100 µM
[39]
  TGI: > 100 µM
[40]
  TGI: > 100 µM
[41]
  TGI: > 100 µM
[42]
  TGI: > 100 µM
[43]
  TGI: > 100 µM
[44]
  TGI: > 100 µM
[45]
  TGI: > 100 µM
[46]
  TGI: > 100 µM
[47]
  TGI: > 100 µM
[48]
  TGI: > 100 µM
[49]
  TGI: > 100 µM
[50]
  TGI: > 100 µM
[51]
  TGI: > 100 µM
[52]
  TGI: > 100 µM
[53]
  TGI: > 100 µM
[54]
  TGI: > 100 µM

## COC(=O)CCc1ccc2c(c1)[C@H](C(=O)OC)[C@@H](c1ccc(O)cc1)O2
[1]
  TGI: > 100 µM
[2]
  TGI: > 100 µM
[3]
  TGI: > 100 µM
[4]
  TGI: > 100 µM
[55]
  TGI: > 100 µM
[5]
  TGI: > 100 µM
[6]
  TGI: > 100 µM
[7]
  TGI: > 100 µM
[8]
  TGI: > 100 µM
[56]
  TGI: > 100 µM
[57]
  TGI: > 100 µM
[9]
  TGI: > 100 µM
[11]
  TGI: > 100 µM
[12]
  TGI: > 100 µM
[13]
  TGI: > 100 µM
[58]
  TGI: > 100 µM
[14]
  TGI: > 100 µM
[15]
  TGI: > 100 µM
[16]
  TGI: > 100 µM
[17]
  TGI: > 100 µM
[18]
  TGI: > 100 µM
[19]
  TGI: > 100 µM
[20]
  TGI: > 100 µM
[21]
  TGI: > 100 µM
[22]
  TGI: > 100 µM
[23]
  TGI: > 100 µM
[24]
  TGI: > 100 µM
[25]
  TGI: > 100 µM
[26]
  TGI: > 100 µM
[27]
  TGI: > 100 µM
[28]
  TGI: > 100 µM
[29]
  TGI: > 100 µM
[30]
  TGI: > 100 µM
[31]
  TGI: > 100 µM
[59]
  TGI: > 100 µM
[32]
  TGI: > 100 µM
[33]
  TGI: > 100 µM
[34]
  TGI: > 100 µM
[35]
  TGI: 65.9 µM
[36]
  TGI: > 100 µM
[37]
  TGI: > 100 µM
[38]
  TGI: > 100 µM
[39]
  TGI: > 100 µM
[40]
  TGI: > 100 µM
[41]
  TGI: > 100 µM
[42]
  TGI: > 100 µM
[43]
  TGI: > 100 µM
[44]
  TGI: > 100 µM
[47]
  TGI: > 100 µM
[48]
  TGI: 67.1 µM
[49]
  TGI: > 100 µM
[50]
  TGI: 47.1 µM
[51]
  TGI: > 100 µM
[52]
  TGI: > 100 µM
[53]
  TGI: > 100 µM
[54]
  TGI: > 100 µM
